Assay results: PMC2873968, “Novel protein kinase D inhibitors cause potent arrest in prostate cancer cell growth and motility” (BMC Chemical Biology, 2010)

Columns and labels:
[1] = biological target: T1, recombinant human PKD3 (Homo sapiens, UniProt O94806); assay: In vitro radiometric PKD kinase assay; assay type: biochemical; conditions: for IC50: radiometric kinase assay, mean ± S.E.M.
T1 construct: purchased Enzo Life Sciences
T1 sequence (O94806 1-890): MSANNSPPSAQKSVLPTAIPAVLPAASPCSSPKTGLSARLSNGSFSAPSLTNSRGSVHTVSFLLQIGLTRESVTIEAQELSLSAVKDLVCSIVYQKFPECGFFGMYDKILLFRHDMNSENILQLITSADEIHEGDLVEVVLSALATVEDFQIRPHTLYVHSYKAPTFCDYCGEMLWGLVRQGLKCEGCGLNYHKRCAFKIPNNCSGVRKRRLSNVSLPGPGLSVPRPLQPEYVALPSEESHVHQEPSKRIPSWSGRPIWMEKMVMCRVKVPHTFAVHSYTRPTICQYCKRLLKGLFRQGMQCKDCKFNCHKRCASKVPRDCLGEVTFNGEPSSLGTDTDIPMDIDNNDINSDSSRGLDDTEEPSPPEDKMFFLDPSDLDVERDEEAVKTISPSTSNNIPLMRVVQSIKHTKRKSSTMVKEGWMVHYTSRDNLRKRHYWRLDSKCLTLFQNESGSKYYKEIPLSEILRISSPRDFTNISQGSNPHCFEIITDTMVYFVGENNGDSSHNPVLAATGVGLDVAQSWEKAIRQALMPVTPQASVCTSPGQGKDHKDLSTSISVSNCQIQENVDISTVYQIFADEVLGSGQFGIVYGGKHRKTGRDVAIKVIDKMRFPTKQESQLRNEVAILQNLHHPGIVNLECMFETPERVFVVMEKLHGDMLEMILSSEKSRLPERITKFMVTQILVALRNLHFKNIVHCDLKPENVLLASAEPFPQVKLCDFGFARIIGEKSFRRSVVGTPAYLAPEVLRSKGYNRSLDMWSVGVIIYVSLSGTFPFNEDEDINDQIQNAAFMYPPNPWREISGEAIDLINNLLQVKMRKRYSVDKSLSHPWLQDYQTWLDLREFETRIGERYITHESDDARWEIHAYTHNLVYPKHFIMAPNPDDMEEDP
Protocol: (§1) In vitro radiometric kinase assays were conducted as previously described. Briefly, 1 μCi [γ-^32P] ATP (PerkinElmer Life Sciences), 70 μM ATP, 50 ng purified recombinant human PKD1 (Biomol International, Plymouth Meeting, PA), PKD2 (SignalChem, Richmond, BC, Canada), or CAMKIIα (Enzo Life Sciences) or 75 ng PKD3 (Enzo Life Sciences), and 2.5 μg syntide-2 (Sigma) in 50 μl kinase buffer containing 50 mM Tris-HCl, pH 7.5, 4 mM MgCl2, and 10 mM β-mercaptoethanol. For the CAMK assay, 0.5 mM CaCl2 and 30 ng/μl calmodulin were pre-incubated for 10 min on ice, and then added to each reaction mixture. The reaction was incubated at 30°C for 10 min, and 25 μl of the reaction mixture was then spotted onto Whatman P81 filter paper (Whatman Inc., Clifton, NJ). The filter papers were washed 3 times in 0.5% phosphoric acid, air-dried, and counted using a Beckman LS6500 multipurpose scintillation counter (Beckman).
(§2) The in vitro inhibitory activities of the novel compounds toward PKD were determined using radiometric PKD kinase activity assays. Recombinant human PKD1, -2, or -3 was incubated with the substrate, syntide-2, in the presence of 10 different concentrations of each compound. IC50 values were determined for each compound by plotting percent PKD activity versus compound concentration for each point.

[2] = biological target: T2, PKD2 (Homo sapiens, UniProt Q9BZL6); assay: In vitro radiometric PKD kinase assay; assay type: biochemical; set-up: purchased SignalChem; conditions: for IC50: radiometric kinase assay, mean ± S.E.M.
T2 sequence (Q9BZL6 1-878): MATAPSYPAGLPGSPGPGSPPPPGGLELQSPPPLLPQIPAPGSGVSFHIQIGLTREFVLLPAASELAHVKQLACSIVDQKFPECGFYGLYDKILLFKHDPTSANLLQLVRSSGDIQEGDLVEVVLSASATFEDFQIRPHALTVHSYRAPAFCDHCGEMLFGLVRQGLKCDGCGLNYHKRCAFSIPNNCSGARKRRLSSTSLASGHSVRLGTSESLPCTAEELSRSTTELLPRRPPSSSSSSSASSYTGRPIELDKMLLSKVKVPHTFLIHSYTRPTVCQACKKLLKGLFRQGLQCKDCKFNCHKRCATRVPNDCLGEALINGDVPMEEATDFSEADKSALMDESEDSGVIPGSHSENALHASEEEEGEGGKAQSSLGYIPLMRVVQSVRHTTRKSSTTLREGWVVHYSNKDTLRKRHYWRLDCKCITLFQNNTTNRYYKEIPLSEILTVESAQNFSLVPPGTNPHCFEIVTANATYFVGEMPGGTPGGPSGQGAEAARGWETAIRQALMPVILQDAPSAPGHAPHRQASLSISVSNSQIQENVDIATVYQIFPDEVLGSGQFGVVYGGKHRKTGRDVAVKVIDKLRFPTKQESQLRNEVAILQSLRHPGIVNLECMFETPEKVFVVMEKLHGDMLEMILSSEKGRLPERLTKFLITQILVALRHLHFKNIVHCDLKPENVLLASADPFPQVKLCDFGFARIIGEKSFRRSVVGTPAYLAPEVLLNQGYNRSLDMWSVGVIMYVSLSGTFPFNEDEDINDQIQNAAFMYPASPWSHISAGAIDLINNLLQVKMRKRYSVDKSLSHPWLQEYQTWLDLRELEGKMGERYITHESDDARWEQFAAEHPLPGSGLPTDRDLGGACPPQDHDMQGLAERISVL
Protocol: as §1, §2

Row | Compound | fold stronger inhibition of PKD3 than CID755673 [1] | IC50 [1] | fold stronger inhibition of PKD2 than CID755673 [2] | IC50 [2] | fold greater inhibition of PKD3 than PKD1 or -2 [1] | change of potency for PKD3 ([1]; versus kb-NB142-70) | fold reduction of potency for PKD2 ([2]; versus kb-NB142-70)
1 | O=C1NCCSc2c1sc1ccc(O)cc21 [kb-NB142-70] | about 4 fold | 53.2 ± 3.5 nM | about 4 fold | 58.7 ± 4.2 nM |  |  | 
2 | COc1ccc2sc3c(c2c1)SCCNC3=O [kb-NB165-09] |  | 98.5 ± 15.3 nM |  | 142 ± 7.4 nM |  |  | 
3 | O=C1NCCSc2c1sc1ccc(O)c(I)c21 [kb-NB165-31] |  | 91.1 ± 17.2 nM |  | 163 ± 20.5 nM |  |  | 
4 | O=C1NCCCSc2c1sc1ccc(O)cc21 [kb-NB165-92] |  | 58.8 ± 7.3 nM |  | 101 ± 10.9 nM | about 2 fold | not altering potency | 2-4 fold
5 | COc1ccc2sc3c(c2c1)SCCCNC3=O [kb-NB184-02] |  | 325 ± 39 nM |  | 463 ± 38.2 nM |  |  | 
